Source: US12668600B2 (Kumquat Biosciences Inc., priority 2023, dated 2026)

Tests used:
Assay type in all cases: biochemical
KRAS G12D = biological target: T1, KRAS G12D (Homo sapiens, UniProt P01116, G12D); test: HTRF KRAS-SOS1 interaction assay, KRAS G12D; settings: binned ≤2 μM / >2 μM, read-out: Inhibition of KRAS G12D (IC50)
T1 construct: made in house; host or cells: E. coli, e.g. BL21 (DE3)
How it was run: (§1)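 GST-tagged KRAS (WT or mutant) with anti-GST-Eu donor, mixed with His-hSOS1 and anti-6His-XL665 acceptor. Buffer ~5 mM HEPES pH 7.4, ~150 mM NaCl, ~1 mM DTT, 0.05% BSA, 0.0025% Igepal; incubated about 10 min or longer. HTRF 665/620 ratio, compounds in duplicate up to 10 μM, IC50 derived.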

KRAS WT = biological target: T2, KRAS WT (Homo sapiens, UniProt P01116); test: HTRF KRAS-SOS1 interaction assay, wildtype KRAS; settings: binned ≤2 μM / >2 μM, read-out: Inhibition of KRAS WT (IC50)
T2 construct: made in house; host or cells: E. coli, e.g. BL21 (DE3)
How it was run: as §1

KRAS G12V = biological target: T3, KRAS G12V (Homo sapiens, UniProt P01116, G12V); test: HTRF KRAS-SOS1 interaction assay, KRAS G12V; settings: binned ≤2 μM / >2 μM, read-out: Inhibition of KRAS G12V (IC50)
T3 construct: made in house; host or cells: E. coli, e.g. BL21 (DE3)
How it was run: as §1

KRAS G12S = biological target: T4, KRAS G12S (Homo sapiens, UniProt P01116, G12S); test: HTRF KRAS-SOS1 interaction assay, KRAS G12S; settings: binned ≤2 μM / >2 μM, read-out: Inhibition of KRAS G12S (IC50)
T4 construct: made in house; host or cells: E. coli, e.g. BL21 (DE3)
How it was run: as §1

Measured: IC50

T2 sequence (P01116 1-188 isoform P01116-2): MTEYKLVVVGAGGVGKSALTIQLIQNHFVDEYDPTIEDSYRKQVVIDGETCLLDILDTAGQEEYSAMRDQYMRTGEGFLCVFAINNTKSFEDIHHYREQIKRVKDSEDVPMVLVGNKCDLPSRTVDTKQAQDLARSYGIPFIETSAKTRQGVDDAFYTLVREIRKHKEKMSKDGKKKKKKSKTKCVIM
T1 sequence (P01116 1-188 isoform P01116-2 G12D): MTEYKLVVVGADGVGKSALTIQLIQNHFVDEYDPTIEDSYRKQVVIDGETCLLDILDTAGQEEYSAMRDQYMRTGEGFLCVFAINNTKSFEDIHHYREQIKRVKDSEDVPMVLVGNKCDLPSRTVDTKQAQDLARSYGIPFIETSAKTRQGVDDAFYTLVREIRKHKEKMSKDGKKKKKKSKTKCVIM
T3 sequence (P01116 1-188 isoform P01116-2 G12V): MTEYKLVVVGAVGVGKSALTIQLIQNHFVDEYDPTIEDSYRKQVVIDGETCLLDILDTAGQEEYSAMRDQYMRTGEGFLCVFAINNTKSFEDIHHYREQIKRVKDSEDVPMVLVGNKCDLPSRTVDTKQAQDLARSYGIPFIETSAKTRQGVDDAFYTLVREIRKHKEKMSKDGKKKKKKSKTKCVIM
T4 sequence (P01116 1-188 isoform P01116-2 G12S): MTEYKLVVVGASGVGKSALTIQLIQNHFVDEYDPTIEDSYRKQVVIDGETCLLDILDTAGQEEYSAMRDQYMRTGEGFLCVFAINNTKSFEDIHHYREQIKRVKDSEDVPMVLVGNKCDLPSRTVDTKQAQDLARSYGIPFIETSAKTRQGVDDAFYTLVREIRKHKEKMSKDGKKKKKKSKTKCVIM

N#Cc1c(N)sc2c(F)ccc(-c3c(C(F)(F)F)c4c5c(nc(OCC6(CN7CCC8(CC7)CC8(F)F)CC6)nc5c3F)N([C@H](CCC3CCOCC3)c3cccnc3N)CCO4)c12 [Compound 907, 2-amino-4-(4-((R)-1-(2-aminopyridin-3-yl)-3-(tetrahydro-2H-pyran-4-yl)propyl)-2-((1-((1,1-difluoro-6-azaspiro[2.5]octan-6-yl)methyl)cyclopropyl)methoxy)-10-fluoro-8-(trifluoromethyl)-5,6-dihydro-4H-[1,4]oxazepino[5,6,7-de]quinazolin-9-yl)-7-fluorobenzo[b]thiophene-3-carbonitrile]
≤ 2 µM: all assays above

C[C@H](c1cncnc1N)N1CCOc2c(C(F)(F)F)c(-c3ccc(F)c4sc(N)c(C#N)c34)c(F)c3nc(OCC4(CN5CCC(F)CC5)CC4)nc1c23 [Compound 908, 2-amino-4-(4-((R)-1-(4-aminopyrimidin-5-yl)ethyl)-10-fluoro-2-((1-((4-fluoropiperidin-1-yl)methyl)cyclopropyl)methoxy)-8-(trifluoromethyl)-5,6-dihydro-4H-[1,4]oxazepino[5,6,7-de]quinazolin-9-yl)-7-fluorobenzo[b]thiophene-3-carbonitrile]
≤ 2 µM: all assays above

C[C@H](c1cccnc1N)N1CCOc2c(Cl)c(-c3ccc(F)c4sc(N)c(C#N)c34)c(F)c3nc(OC[C@]45CCCN4[C@H](CN)CC5)nc1c23 [Compound 915, 2-amino-4-(2-(((3S,7aR)-3-(aminomethyl)tetrahydro-1H-pyrrolizin-7a(5H)-yl)methoxy)-4-((R)-1-(2-aminopyridin-3-yl)ethyl)-8-chloro-10-fluoro-5,6-dihydro-4H-[1,4]oxazepino[5,6,7-de]quinazolin-9-yl)-7-fluorobenzo[b]thiophene-3-carbonitrile]
≤ 2 µM: all assays above

C[C@H](c1cncnc1N)N1CCOc2c(C(F)(F)F)c(-c3ccc(F)c4sc(N)c(C#N)c34)c(F)c3nc(OCC4(CN5CCC(=CF)CC5)CC4)nc1c23 [Compound 916, 2-amino-4-(4-((R)-1-(4-aminopyrimidin-5-yl)ethyl)-10-fluoro-2-((1-((4-(fluoromethylene)piperidin-1-yl)methyl)cyclopropyl)methoxy)-8-(trifluoromethyl)-5,6-dihydro-4H-[1,4]oxazepino[5,6,7-de]quinazolin-9-yl)-7-fluorobenzo[b]thiophene-3-carbonitrile]
≤ 2 µM: all assays above

C[C@H](c1cccnc1N)N1CCOc2c(Cl)c(-c3ccc(F)c4sc(N)c(C#N)c34)c(F)c3nc(OC[C@@]45CCCN4C[C@]4(CC4(F)F)C5)nc1c23 [Compound 918, 2-amino-4-(4-((R)-1-(2-aminopyridin-3-yl)ethyl)-8-chloro-2-(((1R,7a′S)-2,2-difluorodihydro-1′H,3′H-spiro[cyclopropane-1,2′-pyrrolizin]-7a′(5′H)-yl)methoxy)-10-fluoro-5,6-dihydro-4H-[1,4]oxazepino[5,6,7-de]quinazolin-9-yl)-7-fluorobenzo[b]thiophene-3-carbonitrile]
≤ 2 µM: all assays above
